Measured values taken from ChEMBL document CHEMBL1201862, “PubChem BioAssay data set” (2004).
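Briefly, cells in 96-well plates were exposed to five compound concentrations for 48 h, and endpoints were estimated by linear interpolation. GI50 = concentration required for 50% inhibition of growth.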 Calls of active or inactive are those of the source. Cut-off read from the data, not from the text of the source: active = GI50 up to about 1.1 µM and inactive = higher.

Assays:
Test in all cases: NCI tumour cell line growth inhibition, 48 h
SN12C = system: SN12C
EKVX = system: EKVX
HT-29 = system: HT-29
IGROV-1 = system: IGROV-1
SK-MEL-28 = system: SK-MEL-28
OVCAR-4 = system: OVCAR-4
NCI-H460 = system: NCI-H460
A498 = system: A498
OVCAR-3 = system: OVCAR-3
KM12 = system: KM12
ACHN = system: ACHN
U-251 = system: U-251
786-0 = system: 786-0
SW-620 = system: SW-620
HCT-116 = system: HCT-116
SNB-19 = system: SNB-19
NCI/ADR-RES = system: NCI/ADR-RES
MDA-MB-231 = system: MDA-MB-231
T47D = system: T47D

Measured: GI50

CC1CC2C(=O)N(c3ccccc3)C(=O)C2c2[nH]c3ccccc3c21 (stereo not given)
inactive: SN12C > 100 µM | EKVX > 100 µM | HT-29 > 100 µM | IGROV-1 > 100 µM | SK-MEL-28 58.9 µM | OVCAR-4 41.8 µM | NCI-H460 63.7 µM | A498 > 100 µM | OVCAR-3 48.2 µM | KM12 58.5 µM | ACHN 57.7 µM | U-251 38.8 µM | 786-0 50.2 µM | SW-620 > 100 µM

O=C(NCCCCCCCCNC(=O)c1cnc2ccccc2n1)c1cnc2ccccc2n1
inactive: HCT-116 > 100 µM | SN12C > 100 µM | EKVX > 100 µM | HT-29 > 100 µM | IGROV-1 > 100 µM | OVCAR-4 > 100 µM | NCI-H460 > 100 µM | A498 > 100 µM | OVCAR-3 > 100 µM | KM12 > 100 µM | ACHN > 100 µM | SNB-19 > 100 µM | U-251 > 100 µM | 786-0 > 100 µM | SW-620 > 100 µM

COc1ccccc1NCC(=O)Nn1c(C)nc2ccc(S(=O)(=O)Nc3ccccc3OC)cc2c1=O
inactive: HCT-116 > 100 µM | SN12C > 100 µM | EKVX > 100 µM | NCI/ADR-RES > 100 µM | MDA-MB-231 > 100 µM | HT-29 43.8 µM | IGROV-1 42.7 µM | SK-MEL-28 > 100 µM | OVCAR-4 > 100 µM | NCI-H460 > 100 µM | OVCAR-3 83.4 µM | KM12 > 100 µM | ACHN > 100 µM | SNB-19 > 100 µM | U-251 > 100 µM | 786-0 > 100 µM | SW-620 65.2 µM

C=C(CO)CC(O)c1cc(OC)ccc1OC (stereo not given)
inactive: SN12C > 100 µM | EKVX > 100 µM | HT-29 > 100 µM | IGROV-1 > 100 µM | SK-MEL-28 > 100 µM | OVCAR-4 > 100 µM | NCI-H460 > 100 µM | OVCAR-3 > 100 µM | KM12 > 100 µM | ACHN > 100 µM | SNB-19 > 100 µM | U-251 > 100 µM | 786-0 > 100 µM | SW-620 > 100 µM

Oc1ccc(-c2csc(N/N=C3\NC/C(=C/c4ccc5c(c4)OCO5)S3)n2)cc1O
inactive: HCT-116 29.3 µM | SN12C 33.5 µM | EKVX 26.4 µM | NCI/ADR-RES 42 µM | MDA-MB-231 55.8 µM | HT-29 38.5 µM | IGROV-1 20.6 µM | SK-MEL-28 11.9 µM | OVCAR-4 32.9 µM | NCI-H460 31 µM | T47D 31.5 µM | KM12 17.3 µM | ACHN 17 µM | SNB-19 14.4 µM | U-251 22.1 µM | 786-0 30.6 µM | SW-620 35.4 µM

COC(=O)c1ccccc1/C=C1\Cc2c(C)cc(C)cc2C1=O
inactive: HCT-116 > 100 µM | SN12C > 100 µM | EKVX > 100 µM | MDA-MB-231 > 100 µM | HT-29 > 100 µM | IGROV-1 > 100 µM | SK-MEL-28 > 100 µM | OVCAR-4 > 100 µM | NCI-H460 > 100 µM | T47D > 100 µM | A498 > 100 µM | OVCAR-3 > 100 µM | KM12 > 100 µM | ACHN > 100 µM | SNB-19 > 100 µM | U-251 > 100 µM | 786-0 > 100 µM | SW-620 > 100 µM

CC12CC(c3ccccc3O1)C(C(=O)Nc1nccs1)C(=O)N2 (stereo not given)
inactive: HCT-116 > 100 µM | EKVX 35.7 µM | NCI/ADR-RES > 100 µM | MDA-MB-231 > 100 µM | HT-29 > 100 µM | IGROV-1 > 100 µM | SK-MEL-28 40.5 µM | OVCAR-4 > 100 µM | NCI-H460 > 100 µM | A498 > 100 µM | OVCAR-3 > 100 µM | KM12 > 100 µM | ACHN > 100 µM | SNB-19 > 100 µM | U-251 > 100 µM | 786-0 > 100 µM | SW-620 > 100 µM

CN(C)NC1=NS(=O)(=O)c2cc3c(cc2S1)N(N(C)C)C(=O)c1cc2c(cc1N(N(C)C)C3=O)SC(NN(C)C)=NS2(=O)=O
inactive: HCT-116 > 10 µM | SN12C > 10 µM | EKVX > 10 µM | NCI/ADR-RES > 10 µM | HT-29 > 10 µM | IGROV-1 > 10 µM | SK-MEL-28 > 10 µM | OVCAR-4 > 10 µM | NCI-H460 > 10 µM | T47D > 10 µM | A498 > 10 µM | OVCAR-3 > 10 µM | KM12 > 10 µM | ACHN > 10 µM | SNB-19 > 10 µM | U-251 > 10 µM | 786-0 > 10 µM | SW-620 > 10 µM

CCCCC1Cc2cc(O)ccc2-c2nc3cc(O)ccc3n21.CCCCC1Cc2cc(O)ccc2-c2nc3ccc(O)cc3n21 (stereo not given)
inactive: HCT-116 14 µM | SN12C 16.5 µM | EKVX 17.2 µM | NCI/ADR-RES 18.6 µM | MDA-MB-231 13.6 µM | HT-29 16.3 µM | IGROV-1 13 µM | OVCAR-4 7.45 µM | NCI-H460 14.8 µM | T47D 19.9 µM | OVCAR-3 21.7 µM | KM12 19.4 µM | ACHN 13.9 µM | SNB-19 11 µM | U-251 14.4 µM | 786-0 19 µM | SW-620 16.9 µM

CC1(c2nc3ccccc3[nH]2)CCC(C(N)=O)C(C)(C)O1 (stereo not given)
inactive: HCT-116 > 100 µM | SN12C > 100 µM | EKVX > 100 µM | NCI/ADR-RES > 100 µM | MDA-MB-231 > 100 µM | HT-29 > 100 µM | IGROV-1 > 100 µM | SK-MEL-28 > 100 µM | OVCAR-4 > 100 µM | T47D > 100 µM | OVCAR-3 > 100 µM | KM12 > 100 µM | ACHN > 100 µM | SNB-19 > 100 µM | U-251 > 100 µM | 786-0 > 100 µM | SW-620 > 100 µM

Cc1cccc(Nc2cn(COCc3ccccc3)c(=O)[nH]c2=O)c1
inactive: HCT-116 90.8 µM | SN12C > 100 µM | EKVX 15.3 µM | NCI/ADR-RES 14.4 µM | HT-29 64.6 µM | IGROV-1 29.4 µM | SK-MEL-28 > 100 µM | OVCAR-4 41.5 µM | NCI-H460 > 100 µM | A498 > 100 µM | OVCAR-3 > 100 µM | KM12 > 100 µM | ACHN > 100 µM | SNB-19 > 100 µM | U-251 > 100 µM | 786-0 > 100 µM | SW-620 > 100 µM

C=CC(=O)NCCSCCCOC1(C(=O)O)CC(O)C(NC(C)=O)C(C(O)C(O)CO)O1 (stereo not given)
inactive: HCT-116 > 100 µM | SN12C > 100 µM | HT-29 > 100 µM | IGROV-1 > 100 µM | SK-MEL-28 > 100 µM | OVCAR-4 > 100 µM | NCI-H460 > 100 µM | OVCAR-3 > 100 µM | KM12 > 100 µM | ACHN > 100 µM | SNB-19 > 100 µM | U-251 > 100 µM | 786-0 > 100 µM | SW-620 > 100 µM
